In general, EC50 refers to the concentration needed to bring the measured effect to its halfway point. Low readings indicate a more potent agent, high ones a less potent agent. As usually defined, the Emax is the greatest response seen or fitted, relative to the assay's reference.

This note sets out measurements from article PMC12916490 (Molecular Psychiatry, 2025).

T1 sequence (P28223 whole entry, looked up): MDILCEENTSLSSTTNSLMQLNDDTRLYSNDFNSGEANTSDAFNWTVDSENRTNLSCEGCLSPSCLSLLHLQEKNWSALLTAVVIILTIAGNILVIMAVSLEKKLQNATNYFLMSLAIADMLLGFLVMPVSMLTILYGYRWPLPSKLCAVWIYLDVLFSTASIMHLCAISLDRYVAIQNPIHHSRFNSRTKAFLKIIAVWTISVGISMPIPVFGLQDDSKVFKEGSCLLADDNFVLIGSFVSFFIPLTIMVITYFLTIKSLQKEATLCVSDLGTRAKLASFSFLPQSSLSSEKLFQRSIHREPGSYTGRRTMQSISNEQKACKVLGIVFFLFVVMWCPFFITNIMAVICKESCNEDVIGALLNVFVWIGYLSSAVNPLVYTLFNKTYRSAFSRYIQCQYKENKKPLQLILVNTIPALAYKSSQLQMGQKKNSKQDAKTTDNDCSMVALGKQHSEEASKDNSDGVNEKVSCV

The first assay addresses T1, h5-HT2A (Homo sapiens, UniProt P28223). Briefly: IP1 formation (Gαq-mediated signaling), h5-HT2A. It counts as cell-based. Also on record: expressed in transfected cells; host or cells: HEK 293 cells (membrane preparation).
Conditions: not given
As to `CCCCCc1cc(OC)c(CC(C)N)cc1OC` (stereo not shown) [DOAM, 4-amyl-2,5-dimethoxyamphetamine], the “Agonist type for Gαq signaling at the 5-HT2A receptor” value (“Agonist type for Gαq signaling” below) is reported as “high efficacy partial agonists” and the 50% effective concentration (EC50) was 8.1 nM.

Regarding `CCCCc1cc(OC)c(CC(C)N)cc1OC` (stereo not shown) [DOBU, 4-butyl-2,5-dimethoxyamphetamine], the “Agonist type for Gαq signaling” value is “high efficacy partial agonists” and it took 2.8 nM to reach a half-maximal effect (EC50).

`CCc1cc(OC)c(CC(C)N)cc1OC` (stereo not shown) [DOET, 4-ethyl-2,5-dimethoxyamphetamine]: the “Agonist type for Gαq signaling” value is reported as “high efficacy partial agonists” and the response was half-maximal at 12 nM (EC50).

On to `COc1cc(CC(C)N)c(OC)cc1C` (stereo not shown) [DOM, 4-methyl-2,5-dimethoxyamphetamine], for which the “Agonist type for Gαq signaling” value is recorded as “high efficacy partial agonists” and it took 21 nM to reach a half-maximal effect (EC50).

The compound `CCCc1cc(OC)c(CC(C)N)cc1OC.Cl` (stereo not shown) [DOPR, 4-propyl-2,5-dimethoxyamphetamine hydrochloride] registered a concentration for a half-maximal effect (EC50) of 1.9 nM.

Still in this assay, the particulars now being: read-out: IP1 formation Emax h5-HT2A (95% CI).
As to `COc1ccc(OC)c(CC(C)N)c1.Cl` (stereo not shown) [2,5-DMA, 2,5-Dimethoxyamphetamine hydrochloride], the maximum response (Emax) was found to be 99%.

Regarding `CCCCCc1cc(OC)c(CC(C)N)cc1OC` (stereo not shown) [DOAM, 4-amyl-2,5-dimethoxyamphetamine], the maximal response (Emax) worked out at 83%.

For `CCCCc1cc(OC)c(CC(C)N)cc1OC` (stereo not shown) [DOBU, 4-butyl-2,5-dimethoxyamphetamine], the maximal response (Emax) was 90%.

For the compound `CCc1cc(OC)c(CC(C)N)cc1OC` (stereo not shown) [DOET, 4-ethyl-2,5-dimethoxyamphetamine], the Emax is 93%.

`COc1cc(CC(C)N)c(OC)cc1C` (stereo not shown) [DOM, 4-methyl-2,5-dimethoxyamphetamine]: the maximal effect (Emax) is 92%.

With `CCCc1cc(OC)c(CC(C)N)cc1OC.Cl` (stereo not shown) [DOPR, 4-propyl-2,5-dimethoxyamphetamine hydrochloride], the Emax worked out at 96%.

For another assay, the target named is T1, h5-HT2A. Briefly: Arachidonic acid release (Gαi/o,12/13 marker), h5-HT2A.
Conditions: not given
The assay is classed as cell-based. Also on record: expressed in transfected cells; host or cells: HEK 293 cells (membrane preparation). Here is the method:
Activation of h5-HT2A, h5-HT2B, and h5-HT2C receptors was examined by measuring the accumulation of inositol monophosphate (IP1) as a marker for Gαq-mediated signaling. For h5-HT2A, additional assays measured β-arrestin 2 recruitment and arachidonic acid release, the latter serving as a marker of Gαi/o,12/13 activation. The methodology is described in detail in the Supplementary information.
The IC50 values from the radioligand binding assays were determined by nonlinear regression, using three independent concentration-response curves fitted to a one-site model. The Cheng-Prusoff equation was used to calculate Kᵢ values for the competing ligands. EC50 values were determined by applying nonlinear regression to concentration-response curves. Bias factors (β) were calculated based on the relative intrinsic activity approach. More detailed information can be found in the Supplementary information. Mean values for total number of HTR, change in body temperature from pre to post session (Δ°C), and total distance traveled (cm) for each drug dose were compared (p < 0.05) via Welch’s ANOVA with Dunnett’s T3 post test, comparing all doses to respective vehicle controls (0 mg/kg). Welch’s ANOVA with Dunnett’s T3 post test was also used to compare drug concentrations, but the data were compared to DOM in this case. Dose–response relationships for HTR and locomotor activities were plotted using bell-shaped curve fits, while temperature change data were plotted using four-parameter non-linear regression curve fits. The ascending phase of the HTR curve for each drug was used to determine ED50 potency values from four parameter non-linear regression fits. For combined DOM and DOAM administration, the plasma, brain tissue, and brain dialysate drug concentrations were compared using paired t-tests (p < 0.05). […]
the β-arrestin 2 molecule in the NanoBiT system) were seeded at a density of 50,000 cells per well in poly - D-lysine-coated 96-well plates in medium containing 10% dialyzed FBS. The plate was then incubated at […]
The following day, the cells were washed twice with 150 µL HBSS, and 100 µL HBSS was subsequently added to each well. Thereafter, 25 µL of substrate (1 :20 diluted in buffer) was added, and […]
agonist solutions was added, and the signal was monitored for 2 h. Drug dilutions in HBSS were made from 10 mM stock solutions in DMSO , yielding concentration ranges from 10 µM to 10 pM. All concentrations were run in duplicate and included the appropriate solvent controls. Efficacy was normalized to 5 -HT […]
3.2.3 Arachidonic acid release
Arachidonic acid release was assessed as a marker for Gαi/o,12/13 mediated signaling.
NIH/3T3 cells stably expressing the 5 -HT2A receptor were seeded at a density of 75,000 cells per well in a poly-D-lysine-coated 48-well plate. The following day, the cells were labeled with 300 μL [ 3H]arachidonic […]
Thereafter, the cells were washed 3 times for
(10 mM) of test substances were prepared in DMSO. The final dilution series of test substances dissolved […]
Thereafter, the plate was put on ice, and 400 μL incubation supernatant per well was transferred int o scintillation vials containing scintillation fluid (Ultimagold, Perkin Elmer, Schwerzenbach, Switzerland). The remaining supernatant was removed, and the cells were lysed with 1% sodium dodecyl sulfate lysis buffer. The obtained cell lysate was transferred into scintillation vials containing scintillation fluid. Radioactivity was measured on a liquid scintillation counter (Packard 1900 TR Tri-Carb Liquid Scintillation Counter; Packard Instrument Company). Efficacy was normalized to 5-HT activity.
3.2.4 Calculation of bias factors […]
using 5-HT as the reference agonist.
RApathway = EC50, i = EC50, ref×Emax,i […]
As to `COc1ccc(OC)c(CC(C)N)c1.Cl` (stereo not shown) [2,5-DMA, 2,5-Dimethoxyamphetamine hydrochloride], the “Agonist type for Gαi/o,12/13-mediated signaling at the 5-HT2A receptor” value is “high efficacy partial agonists”.

Regarding `CCCCCc1cc(OC)c(CC(C)N)cc1OC` (stereo not shown) [DOAM, 4-amyl-2,5-dimethoxyamphetamine], the “Agonist type for Gαi/o,12/13-mediated signaling at the 5-HT2A receptor” value is “high efficacy partial agonists” and a half-maximal response (EC50) required 2.4 nM.

With `CCCCc1cc(OC)c(CC(C)N)cc1OC` (stereo not shown) [DOBU, 4-butyl-2,5-dimethoxyamphetamine], the “Agonist type for Gαi/o,12/13-mediated signaling at the 5-HT2A receptor” value is “high efficacy partial agonists” and the EC50 amounted to 2 nM.

Regarding `CCc1cc(OC)c(CC(C)N)cc1OC` (stereo not shown) [DOET, 4-ethyl-2,5-dimethoxyamphetamine], the “Agonist type for Gαi/o,12/13-mediated signaling at the 5-HT2A receptor” value is “high efficacy partial agonists” and the EC50 was 1.5 nM.

For `COc1cc(CC(C)N)c(OC)cc1C` (stereo not shown) [DOM, 4-methyl-2,5-dimethoxyamphetamine], the “Agonist type for Gαi/o,12/13-mediated signaling at the 5-HT2A receptor” value was “high efficacy partial agonists” and the EC50 was 3.7 nM.

`CCCc1cc(OC)c(CC(C)N)cc1OC.Cl` (stereo not shown) [DOPR, 4-propyl-2,5-dimethoxyamphetamine hydrochloride] gave an EC50 of 0.86 nM.

The same assay, now with this note: read-out: Arachidonic acid release Emax h5-HT2A (95% CI).
Consider `COc1ccc(OC)c(CC(C)N)c1.Cl` (stereo not shown) [2,5-DMA, 2,5-Dimethoxyamphetamine hydrochloride], for which the maximal effect (Emax) is 59%.

Consider `CCCCCc1cc(OC)c(CC(C)N)cc1OC` (stereo not shown) [DOAM, 4-amyl-2,5-dimethoxyamphetamine], for which the maximum response (Emax) was found to be 91%.

Regarding `CCCCc1cc(OC)c(CC(C)N)cc1OC` (stereo not shown) [DOBU, 4-butyl-2,5-dimethoxyamphetamine], the Emax was found to be 74%.

As for `CCc1cc(OC)c(CC(C)N)cc1OC` (stereo not shown) [DOET, 4-ethyl-2,5-dimethoxyamphetamine], the Emax was 88%.

For the compound `COc1cc(CC(C)N)c(OC)cc1C` (stereo not shown) [DOM, 4-methyl-2,5-dimethoxyamphetamine], the maximal effect (Emax) amounted to 75%.

For the compound `CCCc1cc(OC)c(CC(C)N)cc1OC.Cl` (stereo not shown) [DOPR, 4-propyl-2,5-dimethoxyamphetamine hydrochloride], the Emax worked out at 117%.
